From the supplement of paper PMC8882468

Tested on: HCI-024 (organoid from a breast cancer xenograft)
Test: CTG-3D luminescence at 96 h relative to day-0 seeding control (ratio to day 0); higher = more growth / less cytotoxicity; PDxO 3D drug screen, 96 h, CTG-3D normalised to day-0 seeding control.
Settings: 0.005 µM; days in culture: 163

| Compound | CTG-3D luminescence at 96 h |
| --- | --- |
| COc1cc2c(Oc3ccc4[nH]c(C)cc4c3F)ncnc2cc1OCCCN1CCCC1 [cediranib] | 1.81 |
| CC(C)n1nc(-c2ccc3oc(N)nc3c2)c2c(N)ncnc21 [sapanisertib] | 1.59 |
| Cc1cc(Nc2ncnc3ccc(NC4=NC(C)(C)CO4)cc23)ccc1Oc1ccn2ncnc2c1 [tucatinib] | 1.49 |
| C[C@H](NC(=O)CCC(F)(F)F)C(=O)N[C@@H]1C(=O)N(CCO)c2ncccc2-c2ccccc21 [crenigacestat] | 2.01 |
| C[C@]12CC[C@@H]3c4ccc(O)cc4C[C@@H](CCCCCCCCC[S+]([O-])CCCC(F)(F)C(F)(F)F)[C@H]3[C@@H]1CC[C@@H]2O (some centres not stated) [fulvestrant] | 1.55 |
| O=C(c1ccc(F)c(F)c1Nc1ccc(I)cc1F)N1CC(O)([C@@H]2CCCCN2)C1 [cobimetinib] | 1.89 |
| O=C(/C=C/c1cccnc1)NCCCCC1CCN(C(=O)c2ccccc2)CC1 [FK866] | 0.305 |
| CS(=O)(=O)c1ccc(C(=O)Nc2ccc(Cl)c(-c3ccccn3)c2)c(Cl)c1 [vismodegib] | 1.87 |
| C=CCn1c(=O)c2cnc(Nc3ccc(N4CCN(C)CC4)cc3)nc2n1-c1cccc(C(C)(C)O)n1 [adavosertib] | 1.86 |

Same assay, conditions: 0.1 µM; days in culture: 105

| Compound | CTG-3D luminescence at 96 h |
| --- | --- |
| COc1cc2c(Oc3ccc4[nH]c(C)cc4c3F)ncnc2cc1OCCCN1CCCC1 [cediranib] | 1.6 |
| CC(C)n1nc(-c2ccc3oc(N)nc3c2)c2c(N)ncnc21 [sapanisertib] | 0.885 |
| Cc1cc(Nc2ncnc3ccc(NC4=NC(C)(C)CO4)cc23)ccc1Oc1ccn2ncnc2c1 [tucatinib] | 1.61 |
| C[C@H](NC(=O)CCC(F)(F)F)C(=O)N[C@@H]1C(=O)N(CCO)c2ncccc2-c2ccccc21 [crenigacestat] | 1.59 |
| C[C@]12CC[C@@H]3c4ccc(O)cc4C[C@@H](CCCCCCCCC[S+]([O-])CCCC(F)(F)C(F)(F)F)[C@H]3[C@@H]1CC[C@@H]2O (some centres not stated) [fulvestrant] | 1.36 |
| O=C(c1ccc(F)c(F)c1Nc1ccc(I)cc1F)N1CC(O)([C@@H]2CCCCN2)C1 [cobimetinib] | 1.36 |
| O=C(/C=C/c1cccnc1)NCCCCC1CCN(C(=O)c2ccccc2)CC1 [FK866] | 0.2 |
| CS(=O)(=O)c1ccc(C(=O)Nc2ccc(Cl)c(-c3ccccn3)c2)c(Cl)c1 [vismodegib] | 1.77 |
| C=CCn1c(=O)c2cnc(Nc3ccc(N4CCN(C)CC4)cc3)nc2n1-c1cccc(C(C)(C)O)n1 [adavosertib] | 1.44 |

Same assay, conditions: 0.1 µM; days in culture: 122

| Compound | CTG-3D luminescence at 96 h |
| --- | --- |
| COc1cc2c(Oc3ccc4[nH]c(C)cc4c3F)ncnc2cc1OCCCN1CCCC1 [cediranib] | 1.84 |
| CC(C)n1nc(-c2ccc3oc(N)nc3c2)c2c(N)ncnc21 [sapanisertib] | 0.922 |
| Cc1cc(Nc2ncnc3ccc(NC4=NC(C)(C)CO4)cc23)ccc1Oc1ccn2ncnc2c1 [tucatinib] | 1.93 |
| C[C@H](NC(=O)CCC(F)(F)F)C(=O)N[C@@H]1C(=O)N(CCO)c2ncccc2-c2ccccc21 [crenigacestat] | 1.72 |
| C[C@]12CC[C@@H]3c4ccc(O)cc4C[C@@H](CCCCCCCCC[S+]([O-])CCCC(F)(F)C(F)(F)F)[C@H]3[C@@H]1CC[C@@H]2O (some centres not stated) [fulvestrant] | 1.84 |
| O=C(c1ccc(F)c(F)c1Nc1ccc(I)cc1F)N1CC(O)([C@@H]2CCCCN2)C1 [cobimetinib] | 1.03 |
| O=C(/C=C/c1cccnc1)NCCCCC1CCN(C(=O)c2ccccc2)CC1 [FK866] | 0.179 |
| CS(=O)(=O)c1ccc(C(=O)Nc2ccc(Cl)c(-c3ccccn3)c2)c(Cl)c1 [vismodegib] | 2.07 |
| C=CCn1c(=O)c2cnc(Nc3ccc(N4CCN(C)CC4)cc3)nc2n1-c1cccc(C(C)(C)O)n1 [adavosertib] | 2.01 |

Same assay, conditions: 0.1 µM; days in culture: 163

| Compound | CTG-3D luminescence at 96 h |
| --- | --- |
| COc1cc2c(Oc3ccc4[nH]c(C)cc4c3F)ncnc2cc1OCCCN1CCCC1 [cediranib] | 2.23 |
| CC(C)n1nc(-c2ccc3oc(N)nc3c2)c2c(N)ncnc21 [sapanisertib] | 1.61 |
| Cc1cc(Nc2ncnc3ccc(NC4=NC(C)(C)CO4)cc23)ccc1Oc1ccn2ncnc2c1 [tucatinib] | 2.11 |
| C[C@H](NC(=O)CCC(F)(F)F)C(=O)N[C@@H]1C(=O)N(CCO)c2ncccc2-c2ccccc21 [crenigacestat] | 2.48 |
| C[C@]12CC[C@@H]3c4ccc(O)cc4C[C@@H](CCCCCCCCC[S+]([O-])CCCC(F)(F)C(F)(F)F)[C@H]3[C@@H]1CC[C@@H]2O (some centres not stated) [fulvestrant] | 2.47 |
| O=C(c1ccc(F)c(F)c1Nc1ccc(I)cc1F)N1CC(O)([C@@H]2CCCCN2)C1 [cobimetinib] | 2.26 |
| O=C(/C=C/c1cccnc1)NCCCCC1CCN(C(=O)c2ccccc2)CC1 [FK866] | 0.221 |
| CS(=O)(=O)c1ccc(C(=O)Nc2ccc(Cl)c(-c3ccccn3)c2)c(Cl)c1 [vismodegib] | 2.29 |
| C=CCn1c(=O)c2cnc(Nc3ccc(N4CCN(C)CC4)cc3)nc2n1-c1cccc(C(C)(C)O)n1 [adavosertib] | 2.44 |

Same assay, conditions: 1 µM; days in culture: 105

| Compound | CTG-3D luminescence at 96 h |
| --- | --- |
| COc1cc2c(Oc3ccc4[nH]c(C)cc4c3F)ncnc2cc1OCCCN1CCCC1 [cediranib] | 1.26 |
| CC(C)n1nc(-c2ccc3oc(N)nc3c2)c2c(N)ncnc21 [sapanisertib] | 0.716 |
| Cc1cc(Nc2ncnc3ccc(NC4=NC(C)(C)CO4)cc23)ccc1Oc1ccn2ncnc2c1 [tucatinib] | 1.49 |
| C[C@H](NC(=O)CCC(F)(F)F)C(=O)N[C@@H]1C(=O)N(CCO)c2ncccc2-c2ccccc21 [crenigacestat] | 2.01 |
| C[C@]12CC[C@@H]3c4ccc(O)cc4C[C@@H](CCCCCCCCC[S+]([O-])CCCC(F)(F)C(F)(F)F)[C@H]3[C@@H]1CC[C@@H]2O (some centres not stated) [fulvestrant] | 1.34 |
| O=C(c1ccc(F)c(F)c1Nc1ccc(I)cc1F)N1CC(O)([C@@H]2CCCCN2)C1 [cobimetinib] | 0.803 |
| O=C(/C=C/c1cccnc1)NCCCCC1CCN(C(=O)c2ccccc2)CC1 [FK866] | 0.157 |
| CS(=O)(=O)c1ccc(C(=O)Nc2ccc(Cl)c(-c3ccccn3)c2)c(Cl)c1 [vismodegib] | 1.64 |
| C=CCn1c(=O)c2cnc(Nc3ccc(N4CCN(C)CC4)cc3)nc2n1-c1cccc(C(C)(C)O)n1 [adavosertib] | 0.852 |

Same assay, conditions: 1 µM; days in culture: 122

| Compound | CTG-3D luminescence at 96 h |
| --- | --- |
| COc1cc2c(Oc3ccc4[nH]c(C)cc4c3F)ncnc2cc1OCCCN1CCCC1 [cediranib] | 1.65 |
| CC(C)n1nc(-c2ccc3oc(N)nc3c2)c2c(N)ncnc21 [sapanisertib] | 0.842 |
| Cc1cc(Nc2ncnc3ccc(NC4=NC(C)(C)CO4)cc23)ccc1Oc1ccn2ncnc2c1 [tucatinib] | 1.73 |
| C[C@H](NC(=O)CCC(F)(F)F)C(=O)N[C@@H]1C(=O)N(CCO)c2ncccc2-c2ccccc21 [crenigacestat] | 1.97 |
| C[C@]12CC[C@@H]3c4ccc(O)cc4C[C@@H](CCCCCCCCC[S+]([O-])CCCC(F)(F)C(F)(F)F)[C@H]3[C@@H]1CC[C@@H]2O (some centres not stated) [fulvestrant] | 1.77 |
| O=C(c1ccc(F)c(F)c1Nc1ccc(I)cc1F)N1CC(O)([C@@H]2CCCCN2)C1 [cobimetinib] | 0.873 |
| O=C(/C=C/c1cccnc1)NCCCCC1CCN(C(=O)c2ccccc2)CC1 [FK866] | 0.209 |
| CS(=O)(=O)c1ccc(C(=O)Nc2ccc(Cl)c(-c3ccccn3)c2)c(Cl)c1 [vismodegib] | 2.27 |
| C=CCn1c(=O)c2cnc(Nc3ccc(N4CCN(C)CC4)cc3)nc2n1-c1cccc(C(C)(C)O)n1 [adavosertib] | 1.38 |

Same assay, conditions: 1 µM; days in culture: 163

| Compound | CTG-3D luminescence at 96 h |
| --- | --- |
| COc1cc2c(Oc3ccc4[nH]c(C)cc4c3F)ncnc2cc1OCCCN1CCCC1 [cediranib] | 1.92 |
| CC(C)n1nc(-c2ccc3oc(N)nc3c2)c2c(N)ncnc21 [sapanisertib] | 1.1 |
| Cc1cc(Nc2ncnc3ccc(NC4=NC(C)(C)CO4)cc23)ccc1Oc1ccn2ncnc2c1 [tucatinib] | 1.77 |
| C[C@H](NC(=O)CCC(F)(F)F)C(=O)N[C@@H]1C(=O)N(CCO)c2ncccc2-c2ccccc21 [crenigacestat] | 2.19 |
| C[C@]12CC[C@@H]3c4ccc(O)cc4C[C@@H](CCCCCCCCC[S+]([O-])CCCC(F)(F)C(F)(F)F)[C@H]3[C@@H]1CC[C@@H]2O (some centres not stated) [fulvestrant] | 2.05 |
| O=C(c1ccc(F)c(F)c1Nc1ccc(I)cc1F)N1CC(O)([C@@H]2CCCCN2)C1 [cobimetinib] | 1.17 |
| O=C(/C=C/c1cccnc1)NCCCCC1CCN(C(=O)c2ccccc2)CC1 [FK866] | 0.181 |
| CS(=O)(=O)c1ccc(C(=O)Nc2ccc(Cl)c(-c3ccccn3)c2)c(Cl)c1 [vismodegib] | 2.2 |
| C=CCn1c(=O)c2cnc(Nc3ccc(N4CCN(C)CC4)cc3)nc2n1-c1cccc(C(C)(C)O)n1 [adavosertib] | 1.82 |

Same assay, conditions: 10 µM; days in culture: 105

| Compound | CTG-3D luminescence at 96 h |
| --- | --- |
| COc1cc2c(Oc3ccc4[nH]c(C)cc4c3F)ncnc2cc1OCCCN1CCCC1 [cediranib] | 0.0298 |
| CC(C)n1nc(-c2ccc3oc(N)nc3c2)c2c(N)ncnc21 [sapanisertib] | 0.64 |
| Cc1cc(Nc2ncnc3ccc(NC4=NC(C)(C)CO4)cc23)ccc1Oc1ccn2ncnc2c1 [tucatinib] | 1.54 |
| C[C@H](NC(=O)CCC(F)(F)F)C(=O)N[C@@H]1C(=O)N(CCO)c2ncccc2-c2ccccc21 [crenigacestat] | 1.98 |
| C[C@]12CC[C@@H]3c4ccc(O)cc4C[C@@H](CCCCCCCCC[S+]([O-])CCCC(F)(F)C(F)(F)F)[C@H]3[C@@H]1CC[C@@H]2O (some centres not stated) [fulvestrant] | 2.02 |
| O=C(c1ccc(F)c(F)c1Nc1ccc(I)cc1F)N1CC(O)([C@@H]2CCCCN2)C1 [cobimetinib] | 0.316 |
| O=C(/C=C/c1cccnc1)NCCCCC1CCN(C(=O)c2ccccc2)CC1 [FK866] | 0.205 |
| CS(=O)(=O)c1ccc(C(=O)Nc2ccc(Cl)c(-c3ccccn3)c2)c(Cl)c1 [vismodegib] | 1.97 |
| C=CCn1c(=O)c2cnc(Nc3ccc(N4CCN(C)CC4)cc3)nc2n1-c1cccc(C(C)(C)O)n1 [adavosertib] | 0.412 |
